Test [1] concerns CD4^+ T cells. Briefly: IFN-gamma ELISPOT with overlapping NY-BR-1 18-mers, CD4+ T cells of NY-BR-1 positive patients. The format is cell-based, human. To be noted: IFN-gamma ELISPOT after presensitization with 18-mer, numbering by SEQ ID NO: 32. The protocol:
(§1) CD4^+ and CD8^+ T lymphocytes were separated from PBMC of NY-BR-1 positive patients by magnetic beads (MiniMACS) and seeded into 48-well plates at a concentration of 2.5-5×10^5 cells per well in RPMI medium 1640 supplemented with 10% human serum, L-asparagine (50 mg/l), L-arginine (242 mg/l), and L-glutamine (300 mg/l). PBMC depleted of T cells were used as antigen presenting cells. After irradiation, these cells were incubated with 39 single peptides (10 μg/ml) spanning amino acids 1004-1397 of NY-BR-1(SEQ ID NO: 32) each of 18 amino acids in length and overlapping in 8 positions on each terminus, for 1 hour at room temperature and added to plates at a concentration of 1×10^6 cells per well. IL-2 and IL-4 (2.5 ng/ml and 50 U/ml, respectively) were added to CD4^+ T cell cultures, and IL-2 and IL-7 (2.5 ng/ml and 10 ng/ml, respectively) to CD8^+ T cells. Peptide specific T cell responses against the stimulating epitope were determined by IFN-gamma ELISPOT assays 6 to 12 days after presensitization.
(§2) Flat-bottomed, 96 well nitrocellulose plates were coated with IFN-γ mAb and incubated overnight at 4° C. After washing with PBS, the plates were blocked with 10% human AB serum for 1 hour at 37° C. Presensitized CD4^+ or CD8^+ T cells from (1×10^3 to 5×10^4) and 5×10^4 peptide-pulsed APC (autologous Dendritic Cells or Epstein Barr Virus transfected B cells) were added to each well and incubated for 20 hours in RPMI medium 1640 lacking both IL-2 and human serum. Plates were then washed thoroughly with PBS to remove cells, and biotinylated IFN-γ mAbs were added to each well. After incubation for 2 hours at 37° C., the plates were washed and developed with streptavidin-alkaline phosphase for 1 hour at room temperature. After washing, substrate (5-bromo-4-chloro-3-indolyl phosphate/nitroblue tetrazolium) was added and incubated for 5 minutes.
(§3) Both CD4^+ and CD8^+ T cells were collected from twenty patients, who had been diagnosed with cancer and expressed NY-BR-1, as determined via the methods set forth supra. These CD4^+ and CD8^+ T cells were then analyzed for spontaneous NY-BR-1 specific, CD4^+ and CD8^+ responses.
(§4) Lymphocytes, which had been purified in accordance with the standard methods set forth supra, were presensitized with synthetic 18 mers which overlapped each other, and spanned amino acids […] of SEQ ID NO: 32.
(§5) Following the presensitization, effector cell populations were tested for recognition of ELISPOT assays, with autologous, EBV transfected B cells, and T2 cell lines being used as the antigen presenting cells in the ELISPOT assays. ELISPOT assays were carried out as described supra.

The subject of test [2] is CD8^+ T cells. Briefly: IFN-gamma ELISPOT with overlapping NY-BR-1 18-mers, CD8+ T cells of NY-BR-1 positive patients. The format is cell-based, human. As to conditions: for recognized by CD8+ cells: IFN-gamma ELISPOT after presensitization with 18-mer, numbering by SEQ ID NO: 32. The protocol:
as §1, §2, §3, §4, §5

Test [3] concerns CD8^+ T cell clones. Briefly: T cell stimulation assay: TNF-α production by peptide/HLA-A2 specific CTL clones with COS-7 transfectants (NY-BR-1 + HLA-A2). The format is cell-based, human. As to conditions: COS-7 cells transfected with NY-BR-1 and HLA-A2; CD8+ T cell clones of breast cancer patient NW-1100. The protocol:
Sequences encoding NY-BR-1 were excised from plasmid pQE9, via standard restriction enzyme digestion, and were cloned into BamHI-Hind III sites of commercially available plasmid pcDNA31 (−).
The resulting vectors were then transfected into COS-7 cells. To accomplish this, 2×10^4COS-7 cells were admixed with 150 ng of the construct described supra, and 150 ng of plasmid pcDNA-AmpI, which contained cDNA encoding HLA-A2. The standard DE AE-dextran chloroquine method was used. Transfectants were then incubated at 37° C. for 48 hours, and then tested in a T cell stimulation assay, after 24 hours, as described infra.
The transfectants were tested to determine if they could stimulate production of TNF-α by CTLs specific for complexes of HLA-A2 molecules and one of the peptides described supra. The CTLs used were CD8^+ T cell clones. […]
To test if the transfectants stimulated the CD8^+ cells, 5000 of these CD8^+ cells, in 100 μl RPMI supplemented with 10% human serum, and 25 U/ml of recombinant human IL-2 were added to micowells containing the transfectants. After 24 hours, 50 μl samples of supernatant were collected, and TNFα content was determined by testing cytotoxicity against WEHI 164 clone 13 cells, in an MTT colorimetric assay, which is a standard method for showing TNFα production.

Test [4] relates to CD8^+ cells. Briefly: ELISPOT assay (interferon gamma) of CTL stimulation by NY-BR-1 peptides pulsed onto T2 cells. Format: cell-based, human. As to conditions: peptides pulsed onto irradiated T2 cells at 10 ug/ml; CD8+ effector cells presensitized with peptide; HLA-A2. The protocol:
A series of peptides were synthesized, based upon the amino acid sequence of NY-BR-1, as set forth in SEQ ID NO: 23 and the concatenation of SEQ ID NOS: 30 & 23, as described supra and set forth at SEQ ID NO: 32. These were then tested for their ability to bind to HLA-A2 molecules and to stimulate CTL proliferation, using an ELISPOT assay. This assay involved coating 96-well, flat bottom nitrocellulose plates with 5 ug/ml of anti-interferon gamma antibodies in 100 ul of PBS per well, followed by overnight incubation. Purified CD8^+ cells, which had been separated from PBL samples via magnetic beads coated with anti-CD8 antibodies were then added, at 1×10^5 cells/well, in RPMI 1640 medium, that had been supplemented with 10% human serum, L-asparagine (50 mg/l), L-arginine (242 mg/l), L-glutamine (300 mg/l), together with IL-2 (2.5 ng/ml), in a final volume of 100 ul. CD8^+ effector cells were prepared by presensitizing with peptide, and were then added at from 5×103 to 2×10^4 cells/well. Peptides were pulsed onto irradiated T2 cells at a concentration of 10 ug/ml for 1 hour, washed and added to effector cells, at 5×10^4 cells/well. The plates were incubated for 16 hours at 37° C., washed six times with 0.05% Tween 20/PBS, and were then supplemented with biotinylated, anti-interferon gamma specific antibody at 0.5 ug/ml. After incubation for 2 hours at 37° C., plates were washed, and developed with commercially available reagents, for 1 hour, followed by 10 minutes of incubation with dye substrate. Plates were then prepped for counting, positives being indicated by blue spots. The number of blue spots/well was determined as the frequency of […] specific CTLs/well.
Experiments were run, in triplicate, and total number of CTLs was calculated. As controls, one of reagents alone, effector cells alone, or antigen presenting cells alone were used. The difference between the number of positives in stimulated versus non-stimulated cells, was calculated as the effective number of peptide specific CTLs above background.

Test [5] has as its target T1, serum samples from breast cancer patients and normal serum samples (Homo sapiens, UniProt Q9BXX3).
T1 construct: made in house
T1 sequence (Q9BXX3 1049-1244): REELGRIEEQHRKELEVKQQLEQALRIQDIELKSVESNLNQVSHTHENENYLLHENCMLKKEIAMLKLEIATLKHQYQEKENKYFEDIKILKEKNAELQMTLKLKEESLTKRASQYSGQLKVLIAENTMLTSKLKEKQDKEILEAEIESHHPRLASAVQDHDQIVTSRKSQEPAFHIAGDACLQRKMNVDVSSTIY
In words: Western blotting of serum samples against recombinant NY-BR-1 protein fragments. Format: binding. As for the experimental part:
The frequency of antibody response against NY-BR-1 in breast cancer patients was tested. To do this, a recombinant protein consisting of amino acids 993-1188 of SEQ ID NO: 23 was prepared. (This is the protein encoded by clone BR 17-128, referred to supra). A total of 140 serum samples were taken from breast cancer patients, as were 60 normal serum samples. These were analyzed via Western blotting, using standard methods.
An additional set of experiments was then carried out to determine if sera recognized the portion of NY-BR-1 protein with repetitive elements. To do this, a different recombinant protein, consisting of amino acids 405-1000 was made, and tested in Western blot assays.
Background: A western blot detects proteins with antibodies after separation by electrophoresis.

As to EDIKILKEKNAELQMTLK [p1134-1151], the “CD4+ cells reacted / recognized by CD4+ T cells” value (“CD4+ cells reacted / recognized” below) in test [1] is recorded as “reacted”.
For ENQKVKWEQELCSVRLTL [p1014-1031], in test [1] (listed as 1011-1021), the “CD4+ cells reacted / recognized” value is on record as “reacted”.
For FNYNNHLKNRIYQYEKEK [p1374-1391], in test [1], the “CD4+ cells reacted / recognized” value was “reacted”.
Same read-out and setting: next, HENENYLLHENCMLKKEI [p1094-1111]: “reacted”.
In the case of HIAGDACLQRKMNVDVSS [p1224-1241], in test [2], the “recognized by CD8+ cells” value was “recognized”.
Regarding HLLKEKNEEIFNYNNHLK [p1364-1381], the “CD4+ cells reacted / recognized” value in test [1] is “reacted”.
As for KINLNYAGDALRENTLVS [p1264-1281], in test [2], the “recognized by CD8+ cells” value was “recognized”. In addition, in test [1], the “CD4+ cells reacted / recognized” value is “reacted”.
For “LLSHGAVIEV [NY-BR-1 derived peptide, HLA-A2]”, the “peptide/HLA-A2 complexes recognized by CD8+ T cells (TNFα production); naturally processed epitope” value in test [3] is on record as “natural epitopes”. For the same molecule, in test [4], the “reactive in ELISPOT (peptide specific CTLs above background)” value (shortened to “reactive in ELISPOT”) was “reactive”.
Consider LRENTLVSEHAQRDQRET [p1274-1291], for which the “recognized by CD8+ cells” value in test [2] was “recognized”.
On the same count and under the same terms, next, QQQLVHAHKKADNKSKIT [p1334-1351]: “recognized”.
In the case of QYQEKENKYFEDIKILKE [p1124-1141], the “CD4+ cells reacted / recognized” value in test [1] was “reacted”.
On to “SLDQKLFQL [NY-BR-1 derived peptide, HLA-A2]”, for which, in test [4], the “reactive in ELISPOT” value was “reactive”.
In the case of “SLSKILDTV [NY-BR-1 derived peptide, HLA-A2]”, in test [3], the “peptide/HLA-A2 complexes recognized by CD8+ T cells (TNFα production); naturally processed epitope” value is on record as “natural epitopes”. The “reactive in ELISPOT” value in test [4] is “reactive”.
Regarding TSRKSQEPAFHIAGDACL [p1214-1231], the “recognized by CD8+ cells” value in test [2] is “recognized”. Further, the HLA restriction result in test [2] (recognized when pulsed onto T2 cells, patient 1) is “restricted to HLA-A2”.
YSGQLKVLIAENTMLTSK [p1164-1181]: in test [1], the “CD4+ cells reacted / recognized” value was “reacted”.

B1: amino acids 405-1000: recombinant protein consisting of amino acids 405-1000 of NY-BR-1, the portion with repetitive elements (protein, UniProt Q9BXX3 405-1000, looked up, fragment)
chain: KFTWAAKGRPRKIAWEKKETPVKTGCVARVTSNKTKVLEKGRSKMIACPTKESSTKASANDQRFPSESKQEEDEEYSCDSRSLFESSAKIQVCIPESIYQKVMEINREVEEPPKKPSAFKPAIEMQNSVPNKAFELKNEQTLRADPMFPPESKQKDYEENSWDSESLCETVSQKDVCLPKATHQKEIDKINGKLEESPNKDGLLKATCGMKVSIPTKALELKDMQTFKAEPPGKPSAFEPATEMQKSVPNKALELKNEQTLRADEILPSESKQKDYEENSWDTESLCETVSQKDVCLPKAAHQKEIDKINGKLEGSPVKDGLLKANCGMKVSIPTKALELMDMQTFKAEPPEKPSAFEPAIEMQKSVPNKALELKNEQTLRADEILPSESKQKDYEESSWDSESLCETVSQKDVCLPKATHQKEIDKINGKLEESPDNDGFLKAPCRMKVSIPTKALELMDMQTFKAEPPEKPSAFEPAIEMQKSVPNKALELKNEQTLRADQMFPSESKQKKVEENSWDSESLRETVSQKDVCVPKATHQKEMDKISGKLEDSTSLSKILDTVHSCERARELQKDHCEQRTGKMEQMKKKFCVLK
For the molecule B1, the “reactivity of the four antibody positive sera in Western blot” value in test [5] (the four cancer sera positive for amino acids 993-1188) was “None of the four antibody positive sera reacted”.

B2: amino acids 993-1188: recombinant protein consisting of amino acids 993-1188 of SEQ ID NO: 23 (NY-BR-1) (protein)
chain: T1 sequence (Q9BXX3 1049-1244)
In the case of B2, in test [5] (60 normal serum samples), the “reactivity of normal sera in Western blot” value is listed as “negative”. Further, the “cancer sera samples positive in Western blot” value in test [5] (140 serum samples from breast cancer patients) is “Four”.

These data come from US7795379B2, “Isolated nucleic acid molecules encoding cancer associated antigens, the antigens per se, and uses thereof” (Ludwig Institute for Cancer Research, priority 1999, dated 2010).
